This passage reports EC50 results from US20220323455A1, “FUSED HETEROCYCLIC DERIVATIVES AS ANTIVIRAL AGENTS” (priority 2019, published 2022).

The test relates to HBV. The experiment in a line: HBV replication inhibition assay (BDNA assay) in HepG2.2.15 cells. To be noted: 6 days, encapsidated HBV DNA in supernatant. The class given is cell-based, Hepatitis B virus. How it is done: HBV replication inhibition by the disclosed compounds were determined in cells infected or transfected with HBV or cells with stably integrated HBV, such as HepG2.2.15 cells (Sells et al. 1987). In this example, HepG2.2.15 cells were maintained in cell culture medium containing 10% fetal bovine serum (FBS), Geneticin, L-glutamine, penicillin and streptomycin. HepG2.2.15 cells were seeded in 96-well plates at a density of 40,000 cells/well and were treated with serially diluted compounds at a final DMSO concentration of 0.5% either alone or in combination by adding drugs in a checker box format. Cells were incubated with compounds for three days, after which medium was removed and fresh medium containing compounds was added to cells and incubated for another three days. At day 6, supernatant was removed and treated with DNase at 37° C. for 60 minutes, followed by enzyme inactivation at 75° C. for 15 minutes. Encapsidated HBV DNA was released from the virions and covalently linked HBV polymerase by incubating in lysis buffer (Affymetrix QS0010) containing 2.5 μg proteinase K at 50° C. for 40 minutes. HBV DNA was denatured by addition of 0.2 M NaOH and detected using a branched DNA (BDNA) QuantiGene assay kit according to manufacturer recommendation (Affymetrix). HBV DNA levels were also quantified using qPCR, based on amplification of encapsidated HBV DNA extraction with QuickExtraction Solution (Epicentre Biotechnologies) and amplification of HBV DNA using HBV specific PCR probes that can hybridize to HBV DNA and a fluorescently labeled probe for quantitation. In addition, cell viability of HepG2.2.15 cells incubated with test compounds alone or in combination was determined by using CellTitre-Glo reagent according to the manufacturer protocol (Promega). The mean background signal from wells containing only culture medium was subtracted from all other samples, and percent inhibition at each compound concentration was calculated by normalizing to signals from HepG2.2.15 cells treated with 0.5% DMSO using equation E1.
% inhibition(DMSOave−Xi)DMSOave×100% E1:
where DMSOave is the mean signal calculated from the wells that were treated with DMSO control (0% inhibition control) and Xi is the signal measured from the individual wells. EC50 values, effective concentrations that achieved 50% inhibitory effect, were determined by non-linear fitting using Graphpad Prism software (San Diego, Calif.) and equation E2.
Y=Ymin+(Ymax−Ymin)/(1+10(Log EC50−X)×HillSlope) E2:
where Y represents percent inhibition values and X represents the logarithm of compound concentrations.
Selected disclosed compounds were assayed in the HBV replication assay (BDNA assay), as described above, and a representative group of these active compounds is shown in Table 5.

The mark [1] stands for this setting: Hepatitis B virus, HepG2.2.15, 144 h.

In general, EC50 refers to the concentration giving half of the maximal effect. Take `N#CCC1(O)CCC(F)(F)c2c3c(nn2C1)CCN(C(=O)Nc1ccnc(C(F)F)c1F)C3` (single isomer, unassigned) [Example 42, (R*)-8-(Cyanomethyl)-N-(2-(difluoromethyl)-3-fluoropyridin-4-yl)-11,11-difluoro-8-hydroxy-3,4,89,10,11-hexahydro-1H-pyrido[4′,3′:3,4]pyrazolo[1,5-a]azepine-2(7H)-carboxamide]: the concentration for a half-maximal effect (EC50) amounted to 163 nM. On to `N#CCC1(O)CCC(F)(F)c2c3c(nn2C1)CCN(C(=O)Nc1ccnc(Br)c1F)C3` (single isomer, unassigned) [Example 43, (S*)—N-(2-Bromo-3-fluoropyridin-4-yl)-8-(cyanomethyl)-11,11-difluoro-8-hydroxy-34,89,10,11-hexahydro-1H-pyrido[4′,3′:3,4]pyrazolo[1,5-a]azepine-2(7H)-carboxamide], for which the EC50 was 282 nM.

In the case of `N#CCC1(O)CCC(F)(F)c2c3c(nn2C1)CCN(C(=O)Nc1ccnc(C(F)F)c1F)C3` (single isomer, unassigned) [Example 44, (S*)-8-(Cyanomethyl)-N-(2-(difluoromethyl)-3-fluoropyridin-4-yl)-11,11-difluoro-8-hydroxy-3,4,8,9,10,11-hexahydro-1H-pyrido[4′,3′:3,4]pyrazolo[1,5-a]azepine-2(7H)-carboxamide], the half-maximal effective concentration (EC50) stood at 333 nM. Consider `O=C(Nc1ccnc(Br)c1F)N1CCc2nn3c(c2C1)C(F)(F)CCC(F)(CO)C3` (single isomer, unassigned) [Example 47, (S*)—N-(2-Bromo-3-fluoropyridin-4-yl)-8,11,11-trifluoro-8-(hydroxymethyl)-3,4,8,9,10,11-hexahydro-1H-pyrido[4′,3′:3,4]pyrazolo[1,5-a]azepine-2(7H)-carboxamide], for which the 50% effective concentration (EC50) is 156 nM. In the case of `O=C(Nc1ccnc(Br)c1F)N1CCc2nn3c(c2C1)C(F)(F)CCC(F)(CO)C3` (single isomer, unassigned) [Example 48, (R*)—N-(2-Bromo-3-fluoropyridin-4-yl)-8,11,11-trifluoro-8-(hydroxymethyl)-3,4,8,9,10,11-hexahydro-1H-pyrido[4′,3′:3,4]pyrazolo[1,5-a]azepine-2(7H)-carboxamide], the EC50 is 11 nM. Same read-out and setting: the figure for `C=CC1(O)CCC(F)(F)c2c3c(nn2C1)CCN(C(=O)Nc1ccc(F)c(C#N)c1)C3` (single isomer, unassigned) [Example 57, (S*)—N-(3-Cyano-4-fluorophenyl)-11,11-difluoro-8-hydroxy-8-vinyl-3,4,8,9,10,11-hexahydro-1H-pyrido[4′,3′:3,4]pyrazolo[1,5-a]azepine-2(7H)-carboxamide] is 9 nM; for `C#CC1(O)CCC(F)(F)c2c3c(nn2C1)CCN(C(=O)Nc1ccc(F)c(C#N)c1)C3` (single isomer, unassigned) [Example 59, (R*)—N-(3-Cyano-4-fluorophenyl)-8-ethynyl-11,11-difluoro-8-hydroxy-3,4,8,9,10,11-hexahydro-1H-pyrido[4′,3′:3,4]pyrazolo[1,5-a]azepine-2(7H)-carboxamide] it is 5 nM; for `C#CC1(O)CCC(F)(F)c2c3c(nn2C1)CCN(C(=O)Nc1ccc(F)c(C#N)c1)C3` (single isomer, unassigned) [Example 60, (S*)—N-(3-Cyano-4-fluorophenyl)-8-ethynyl-11,11-difluoro-8-hydroxy-3,4,8,9,10,11-hexahydro-1H-pyrido[4′,3′:3,4]pyrazolo[1,5-a]azepine-2(7H)-carboxamide] it is 17 nM.

For `CCC1(O)CCC(F)(F)c2c3c(nn2C1)CCN(C(=O)Nc1ccc(F)c(C#N)c1)C3` (single isomer, unassigned) [Example 61, (S*)—N-(3-Cyano-4-fluorophenyl)-8-ethyl-11,11-difluoro-8-hydroxy-3,4,8,9,10,11-hexahydro-1H-pyrido[4′,3′:3,4]pyrazolo[1,5-a]azepine-2(7H)-carboxamide], under setting [1], the 50% effective concentration (EC50) was determined as 40 nM.

For the compound `CCC1(O)CCC(F)(F)c2c3c(nn2C1)CCN(C(=O)Nc1ccc(F)c(C#N)c1)C3` (single isomer, unassigned) [Example 62, (R*)—N-(3-Cyano-4-fluorophenyl)-8-ethyl-11,11-difluoro-8-hydroxy-3,4,8,9,10,11-hexahydro-1H-pyrido[4′,3′:3,4]pyrazolo[1,5-a]azepine-2(7H)-carboxamide], the EC50 is 42 nM. In the case of `C#CC1(O)CCC(F)(F)c2c3c(nn2C1)CCN(C(=O)Nc1ccnc(C(F)F)c1F)C3` (single isomer, unassigned) [Example 64, (R*)—N-(2-(Difluoromethyl)-3-fluoropyridin-4-yl)-8-ethynyl-11,11-difluoro-8-hydroxy-3,4,89,10,11-hexahydro-1H-pyrido[4′,3′:3,4]pyrazolo[1,5-a]azepine-2(7H)-carboxamide], the EC50 under setting [1] was 143 nM. As for `C#CC1(O)CCC(F)(F)c2c3c(nn2C1)CCN(C(=O)Nc1ccnc(Br)c1F)C3` (single isomer, unassigned) [Example 65, (S*)—N-(2-Bromo-3-fluoropyridin-4-yl)-8-ethynyl-11,11-difluoro-8-hydroxy-3,4,8,9,10,11-hexahydro-1H-pyrido[4′,3′:3,4]pyrazolo[1,5-a]azepine-2(7H)-carboxamide], the EC50 is 144 nM. In the case of `C#CC1(O)CCC(F)(F)c2c3c(nn2C1)CCN(C(=O)Nc1ccnc(C(F)F)c1F)C3` (single isomer, unassigned) [Example 66, (S*)—N-(2-(Difluoromethyl)-3-fluoropyridin-4-yl)-8-ethynyl-11,11-difluoro-8-hydroxy-3,4,8,9,10,11-hexahydro-1H-pyrido[4′,3′:3,4]pyrazolo[1,5-a]azepine-2(7H)-carboxamide], the EC50 came out at 149 nM. As for `C[C@@H]1Cc2nn3c(c2CN1C(=O)Nc1ccc(F)c(C(F)(F)F)c1)C(F)(F)CCC(CO)C3` (single isomer, unassigned) [Example 76, (3R,8S*)-11,11-Difluoro-N-(4-fluoro-3-(trifluoromethyl)phenyl)-8-(hydroxymethyl)-3-methyl-3,4,8,9,10,11-hexahydro-1H-pyrido[4′,3′:3,4]pyrazolo[1,5-a]azepine-2(7H)-carboxamide], the EC50 was found to be 5 nM. In the case of `C[C@@H]1Cc2nn3c(c2CN1C(=O)Nc1ccnc(Br)c1F)C(F)(F)CCC(CO)C3` (single isomer, unassigned) [Example 77, (3R,8S*)—N-(2-Bromo-3-fluoropyridin-4-yl)-11,11-difluoro-8-(hydroxymethyl)-3-methyl-3,4,8,9,10,11-hexahydro-1H-pyrido[4′,3′:3,4]pyrazolo[1,5-a]azepine-2(7H)-carboxamide], the EC50 was found to be 14 nM. Take `C[C@@H]1Cc2nn3c(c2CN1C(=O)Nc1ccnc(C(F)F)c1F)C(F)(F)CCC(CO)C3` (single isomer, unassigned) [Example 78, (3R,8S*)—N-(2-(Difluoromethyl)-3-fluoropyridin-4-yl)-11,11-difluoro-8-(hydroxymethyl)-3-methyl-3,4,8,9,10,11-hexahydro-1H-pyrido[4′,3′:3,4]pyrazolo[1,5-a]azepine-2(7H)-carboxamide]: the EC50 worked out at 30 nM.

For `C[C@@H]1Cc2nn3c(c2CN1C(=O)Nc1ccc(F)c(C#N)c1)C(F)(F)CCC(CO)C3` (single isomer, unassigned) [Example 79, (3R,8R*)—N-(3-Cyano-4-fluorophenyl)-11,11-difluoro-8-(hydroxymethyl)-3-methyl-3,4,8,9,10,11-hexahydro-1H-pyrido[4′,3′:3,4]pyrazolo[1,5-a]azepine-2(7H)-carboxamide], under setting [1], the half-maximal effective concentration (EC50) was 1 nM.
